From US9901592B2 (priority 2008, dated 2018)
Converted amounts (≈) assume the structure as drawn. “And” between values parts separate entries of the source, which are not always exact repeats. Equal values may be shown once. Read-outs that look alike come from different tables or passages of the source.

Key:
S. pneumoniae [1] = experiment: microbe, parasite or virus in culture; type: cell-based
N. meningitidis = experiment: MIC, CLSI broth microdilution, invasive isolates; type: cell-based; conditions: for MIC / MIC50 / MIC90: Neisseria meningitidis, 62 N. meningitidis isolates
Procedure: Example. […] Colonization of the nasopharynx (NP) by NM can lead to invasive meningococcal disease. Chemoprophylaxis is used to eradicate NP colonization and prevent transmission to nonimmune contacts. […] 62 isolates (91.9% blood culture) of NM were collected from 29 medical centers in North and South America and Europe (1997-2008). […] Serological identification was performed for serogroups (SGs) B, C, Y and W135.

U. urealyticum = experiment: MIC testing in 10B broth (colour change); type: cell-based; conditions: for MIC Range / MIC50 / MIC90: U. urealyticum (10 isolates)
M. hominis = type: cell-based
M. fermentans = type: cell-based; conditions: M. fermentans (15 isolates); for MIC50 / MIC90: Mycoplasmopsis fermentans
M. pneumoniae = experiment: microbe, parasite or virus in culture; type: cell-based; conditions: for MIC50 / MIC90: Mycoplasmoides pneumoniae
M. genitalium = type: cell-based; conditions: M. genitalium (5 isolates)
U. parvum = experiment: MIC testing in 10B broth (colour change); type: cell-based, Ureaplasma parvum; conditions: for MIC Range / MIC50 / MIC90: U. parvum (10 isolates); for MIC50 / MIC90: Ureaplasma parvum; for MIC50: read-out: MIC50; for MIC90: read-out: MIC90
S. aureus = type: cell-based
S. pneumoniae [2] = type: cell-based
pneumococci = experiment: microbe, parasite or virus in culture; type: cell-based, S. pneumoniae
M. catarrhalis = experiment: microbe, parasite or virus in culture; type: cell-based; conditions: Moraxella catarrhalis
group A streptococci = experiment: microbe, parasite or virus in culture; type: cell-based, S. pyogenes
streptococci = experiment: organism not typed; type: cell-based
[3] = Streptococcus pneumoniae, pneumococci, L4 mutations (27)

CO/N=C(\C(=O)N[C@@H]1C(=O)N2C(C(=O)O)=C(CSc3nc(=O)c(=O)[nH]n3C)CS[C@H]12)c1csc(N)n1 [CRO, ceftriaxone]
nonsusceptibility (S. pneumoniae [1]): 33.3% | % Susc. (N. meningitidis; CLSI (M100-S19, 2009) criteria): 100.0% | MIC (N. meningitidis): ≤ 0.015 mg/L | MIC50 (N. meningitidis): ≤ 0.015 mg/L | MIC90 (N. meningitidis): ≤ 0.015 mg/L

C[C@H]1c2cccc(O)c2C(=O)C2=C(O)[C@]3(O)C(=O)C(C(N)=O)=C(O)[C@@H](N(C)C)[C@@H]3[C@@H](O)[C@@H]21 [Doxycycline, doxycycline]
MIC Range (U. urealyticum): 0.031 to 32 mg/L | MIC (U. urealyticum; Ureaplasma urealyticum, 4 doxycycline-resistant U. urealyticum): 4 to 32 mg/L (≈ 9 to 72 µM) | MIC50 (U. urealyticum; Ureaplasma urealyticum): 1 mg/L (≈ 2.25 µM) | MIC90 (U. urealyticum; Ureaplasma urealyticum): 16 mg/L (≈ 36 µM) | MIC Range (M. hominis; M. hominis (13 isolates)): ≦0.008-0.016 μg/mL | MIC50 (M. hominis; Metamycoplasma hominis): 0.125 mg/L (≈ 0.281 µM) | MIC90 (M. hominis; Metamycoplasma hominis): 8 mg/L (≈ 18 µM) | MIC (M. hominis; Metamycoplasma hominis, 2 doxycycline-resistant M. hominis isolates): 8 to 16 mg/L (≈ 18 to 36 µM) | MIC Range (M. fermentans): 0.016 to 0.5 mg/L | MIC50 (M. fermentans): 0.125 mg/L (≈ 0.281 µM) | MIC90 (M. fermentans): 0.5 mg/L (≈ 1.13 µM) | MIC Range (M. pneumoniae): 0.016 to 0.25 mg/L | MIC50 (M. pneumoniae): 0.125 mg/L (≈ 0.281 µM) | MIC90 (M. pneumoniae): 0.25 mg/L (≈ 0.563 µM) | MIC Range (M. genitalium): ≦0.008-0.031 μg/mL | MIC (U. parvum; 7 doxycycline-resistant Ureaplasma parvum): 4 to 16 mg/L (≈ 9 to 36 µM) | MIC Range (U. parvum): 0.031 to 16 mg/L | MIC50 (U. parvum): 8 mg/L (≈ 18 µM) | MIC90 (U. parvum): 16 mg/L (≈ 36 µM)

CC[C@H]1OC(=O)[C@H](C)[C@@H](OC2CC(C)(OC)C(O)C(C)O2)[C@H](C)[C@@H](OC2OC(C)CC(N(C)C)C2O)[C@@](C)(OC)C[C@@H](C)C(=O)[C@H](C)[C@H]2N(CCCCn3cc(-c4ccccn4)nn3)C(=O)O[C@]12C (stereo partly drawn) [Entry 20a]
MIC (S. aureus): 8 mg/L (≈ 8.22 µM) | MIC (S. pneumoniae [2]): ≦0.0625 μg/mL

CC[C@H]1OC(=O)[C@H](C)[C@@H](OC2CC(C)(OC)C(O)C(C)O2)[C@H](C)[C@@H](OC2OC(C)CC(N(C)C)C2O)[C@@](C)(OC)C[C@@H](C)C(=O)[C@H](C)[C@H]2N(CCCCn3cc(-c4cccnc4)nn3)C(=O)O[C@]12C (stereo partly drawn) [Entry 20b]
MIC (S. aureus): 8 mg/L (≈ 8.22 µM) | MIC (S. pneumoniae [2]): ≦0.0625 μg/mL

CC[C@H]1OC(=O)[C@H](C)[C@@H](OC2CC(C)(OC)C(O)C(C)O2)[C@H](C)[C@@H](OC2OC(C)CC(N(C)C)C2O)[C@@](C)(OC)C[C@@H](C)C(=O)[C@H](C)[C@H]2N(CCCCn3cc(COc4c(Cl)cccc4Cl)nn3)C(=O)O[C@]12C (stereo partly drawn) [Entry 20d]
MIC (S. aureus): 8 mg/L (≈ 7.47 µM) | MIC (S. pneumoniae [2]): ≦0.0625 μg/mL

CC[C@H]1OC(=O)[C@H](C)[C@@H](OC2CC(C)(OC)C(O)C(C)O2)[C@H](C)[C@@H](OC2OC(C)CC(N(C)C)C2O)[C@@](C)(OC)C[C@@H](C)C(=O)[C@H](C)[C@H]2N(CCCCn3cc(Cn4nnc5ccccc54)nn3)C(=O)O[C@]12C (stereo partly drawn) [Entry 20e]
MIC (S. aureus): 8 mg/L (≈ 7.79 µM) | MIC (S. pneumoniae [2]): ≦0.0625 μg/mL

CC[C@H]1OC(=O)[C@@](C)(F)C(=O)[C@H](C)[C@@H](OC2OC(C)CC(N(C)C)C2O)[C@@](C)(OC)C[C@@H](C)C(=O)[C@H](C)[C@H]2N(CCCCn3cc(-c4ccccn4)nn3)C(=O)O[C@]12C (stereo partly drawn) [Entry 23a]
MIC (S. pneumoniae [2]): ≦0.125 μg/mL

CC[C@H]1OC(=O)[C@H](C)[C@@H](O[C@H]2C[C@@](C)(OC)[C@@H](O)[C@H](C)O2)[C@H](C)[C@@H](O[C@@H]2O[C@H](C)C[C@H](N(C)C)[C@H]2O)[C@](C)(O)C[C@@H](C)C(=O)[C@H](C)[C@@H](O)[C@]1(C)O [Erythromycin, erythromycin A]
MIC90 (S. pneumoniae [1]; Streptococcus pneumoniae): > 32 mg/L | MIC (N. meningitidis): 0.03 to 0.5 mg/L (≈ 0.0409 to 0.681 µM) | MIC50 (N. meningitidis): 0.12 mg/L (≈ 0.164 µM) | MIC90 (N. meningitidis): 0.25 mg/L (≈ 0.341 µM) | MIC50 (pneumococci; [3]): > 64 mg/L | MIC90 (pneumococci; [3]): > 64 mg/L | MIC90 (M. catarrhalis): 0.25 mg/L (≈ 0.341 µM)

C[C@H]1COc2c(N3CCN(C)CC3)c(F)cc3c(=O)c(C(=O)O)cn1c23 [Levo]
MIC50 (group A streptococci): 0.5 mg/L (≈ 1.38 µM) | MIC90 (group A streptococci): 0.5 mg/L and 1 mg/L | MIC Range (group A streptococci): 0.5 to 1 mg/L and 0.5 to 2 mg/L | MIC50 (pneumococci): 1 mg/L (≈ 2.77 µM) | MIC Range (pneumococci): 0.06 to 32 mg/L | MIC range (pneumococci): 1 to 32 mg/L

C[C@H]1COc2c(N3CCN(C)CC3)c(F)cc3c(=O)c(C(=O)O)cn1c23 [Levofloxacin, levofloxacin]
MIC90 (group A streptococci): 0.5 mg/L (≈ 1.38 µM) | MIC Range (group A streptococci): 0.5 to 1 mg/L and 0.5 mg/L | MIC50 (group A streptococci; Streptococcus pyogenes): 0.5 mg/L (≈ 1.38 µM) | MIC90 (group A streptococci; Streptococcus pyogenes): 1 mg/L (≈ 2.77 µM) | MIC (group A streptococci; Streptococcus pyogenes, read-out: MIC Range): 0.5 to 2 mg/L (≈ 1.38 to 5.53 µM) | % Res. (N. meningitidis; CLSI (M100-S19, 2009) criteria): 0.0% | % Susc. (N. meningitidis; CLSI (M100-S19, 2009) criteria): 100.0% | MIC (N. meningitidis): 0.008 to 0.015 mg/L (≈ 0.0221 to 0.0415 µM) | MIC50 (N. meningitidis): ≤ 0.008 mg/L | MIC90 (N. meningitidis): ≤ 0.008 mg/L | MIC Range (U. urealyticum): 0.5 to 2 mg/L | MIC50 (U. urealyticum; Ureaplasma urealyticum): 0.5 mg/L (≈ 1.38 µM) | MIC90 (U. urealyticum; Ureaplasma urealyticum): 1 mg/L (≈ 2.77 µM) | MIC50 (pneumococci; [3]): 1 mg/L (≈ 2.77 µM) | MIC90 (pneumococci; [3]): 2 mg/L (≈ 5.53 µM) | MIC (pneumococci; Streptococcus pneumoniae, read-out: MIC range, pneumococci, L4 mutations (27)): 0.5 to 16 mg/L (≈ 1.38 to 44.3 µM) | MIC Range (M. hominis; M. hominis (13 isolates)): 0.125 to 0.5 mg/L | MIC50 (M. hominis; Metamycoplasma hominis, M. hominis (13 isolates), read-out: MIC50): 0.25 mg/L (≈ 0.692 µM) | MIC90 (M. hominis; Metamycoplasma hominis, M. hominis (13 isolates), read-out: MIC90): 0.5 mg/L (≈ 1.38 µM) | MIC Range (M. fermentans): ≦0.008-0.25 μg/mL | MIC50 (M. fermentans): 0.031 mg/L (≈ 0.0858 µM) | MIC90 (M. fermentans): 0.125 mg/L (≈ 0.346 µM) | MIC Range (M. pneumoniae): 0.125 to 1 mg/L | MIC50 (M. pneumoniae): 0.5 mg/L (≈ 1.38 µM) | MIC90 (M. pneumoniae): 0.5 mg/L (≈ 1.38 µM) | MIC Range (M. genitalium): 0.125 to 1 mg/L | MIC50 (streptococci): 1 mg/L (≈ 2.77 µM) | MIC90 (streptococci): 1 mg/L (≈ 2.77 µM) | MIC 90% (streptococci): 2 mg/L (≈ 5.53 µM) | MIC Range (U. parvum): 0.125 to 2 mg/L | MIC50 (U. parvum): 0.5 mg/L (≈ 1.38 µM) | MIC90 (U. parvum): 2 mg/L (≈ 5.53 µM)
